The record followed here is publication PMC11468049 (Fluids and Barriers of the CNS, 2024).

Data set [1] concerns iPSC-derived pericyte-like cells. In words: Aβ42-Hylite488 internalization by pericyte-like cells (confocal microscopy). It is filed as cell-based, human. To be noted: confocal microscopy (Fig. 5D).
Text: Data are reported as mean ± standard deviation. […] The last column contains the merged images. Scale bars: 10 μm. […] (n = 4 wells of biological replicates per condition) **: p < 0.01 in Student’s t-test. Data are reported as mean ± standard deviation. […] Confocal microscopy images were taken at 5 μm z-slice intervals. All z-slices with Hoechst 33342 nuclear staining were aggregated for maximum intensity projection analysis. Scale bars: 10 μm.
Data set [2] deals with T1, LRP1 (Homo sapiens, UniProt Q07954).
T1 construct: endogenous in cells; host or cells: APOE3 human iPSC-derived BMEC-like cells
Kind of data set: in vitro Aβ transcytosis assay with LRP1 inhibition by RAP. It is filed as cell-based. To be noted: APOE3 iPSC-derived BMEC-like cells on Transwell; with and without RAP; 3 h; apical Aβ40 by ELISA; n = 8 wells (Fig. 2D). The protocol: (§1) Transwells (Corning, 3460) pre-coated with 200 uL 0.5 mg/mL collagen IV (Sigma, C5533) overnight at 37 °C. iPSC-derived BMEC-like cells were seeded at 1 million/cm^2 on Transwells (Corning, 3460) in hECSR media. […] This buffer helps to maintain Aβ in monomeric and denatured state. Stocks were then diluted to 500 nM in hECSR medium immediately before experiments. For experiments conditions when recombinant APOE is added, recombinant APOE2 (Peprotech, 350 − 12), APOE3 (Peprotech, 350-02) or APOE4 (Peprotech, 350-04) were added at concentration of 500 nM. In transcytosis assay, 1.5 mL of hECSR medium with Aβ and/or recombinant APOE was added to the basolateral chamber. 0.5 mL of hECSR media that is Aβ-free and APOE-free was added to the apical chamber. The Transwells were then incubated at 37 °C on a 300 rpm orbital shaker for 3 h. Media samples from the apical chamber were taken and analyzed.
(Fig. 2A). […] (Fig. 2E).
A general note: In an ELISA, binding on a coated surface is turned into a signal by an enzyme label.

Data set [3] deals with T1, LRP1. Kind of data set: Aβ42-Hylite488 internalization by pericyte-like cells with LRP1 inhibition by RAP. It is filed as cell-based. To be noted: APOE3 pericyte-like cells; with or without RAP; confocal MFI; n = 4 (Fig. 5D, E). An excerpt: Patients with AD commonly have amyloid deposits associated with their brain vasculature, contributing to a pathological condition known as cerebral amyloid angiopathy (CAA). Recently, a role of pericytes in CAA has been reported. We quantified deposition of Aβ42, the Aβ isoform more prone to aggregation, for pericyte-like cells expressing different APOE isoforms. […] The pericyte-like cells were then singularized, washed and fixed, but not permeabilized, for cell surface immunolabeling with an anti-Aβ antibody. […] In the same way, we then examined the impact of APOE genotype on pericyte-like cell internalization of Aβ42.
Pericyte-like cells were then singularized, washed and labeled with anti-Aβ-FITC antibody for flow cytometry quantification of cell surface-associated Aβ42. […] FSC: forward scatter. Histogram is normalized to mode. […] Data are reported as mean ± standard deviation. (D) Representative confocal microscopy images showing accumulation of intracellular Aβ42-Hylite488 with or without LRP1 inhibition by RAP in APOE3 pericyte-like cells. […] (E) Quantification of mean fluorescence intensity (MFI) of Aβ42-Hylite488 accumulated inside APOE3 pericyte-like cells by confocal microscopy. […] (G) Quantification of mean fluorescence intensity (MFI) in maximum intensity projection confocal microscopy images of Aβ42-Hylite488 accumulated inside iPSC-derived pericytes by confocal microscopy. […]

Data set [4] relates to iPSC-derived BMEC-like cells. Kind of data set: in vitro Aβ transcytosis assay (basolateral-to-apical, Transwell). It is filed as cell-based, human. To be noted: 3 h, 37 °C; for effect of recombinant APOE isoform on Aβ42 trafficking: 500 nM rhAPOE plus 500 nM Aβ42 basolateral. The protocol: as §1
Where [5] appears, read: APOE KO BMEC-like cells on Transwell, apical ELISA, vs no APOE control, n = 12 (Fig. 3D).

T1 sequence (Q07954 20-4544): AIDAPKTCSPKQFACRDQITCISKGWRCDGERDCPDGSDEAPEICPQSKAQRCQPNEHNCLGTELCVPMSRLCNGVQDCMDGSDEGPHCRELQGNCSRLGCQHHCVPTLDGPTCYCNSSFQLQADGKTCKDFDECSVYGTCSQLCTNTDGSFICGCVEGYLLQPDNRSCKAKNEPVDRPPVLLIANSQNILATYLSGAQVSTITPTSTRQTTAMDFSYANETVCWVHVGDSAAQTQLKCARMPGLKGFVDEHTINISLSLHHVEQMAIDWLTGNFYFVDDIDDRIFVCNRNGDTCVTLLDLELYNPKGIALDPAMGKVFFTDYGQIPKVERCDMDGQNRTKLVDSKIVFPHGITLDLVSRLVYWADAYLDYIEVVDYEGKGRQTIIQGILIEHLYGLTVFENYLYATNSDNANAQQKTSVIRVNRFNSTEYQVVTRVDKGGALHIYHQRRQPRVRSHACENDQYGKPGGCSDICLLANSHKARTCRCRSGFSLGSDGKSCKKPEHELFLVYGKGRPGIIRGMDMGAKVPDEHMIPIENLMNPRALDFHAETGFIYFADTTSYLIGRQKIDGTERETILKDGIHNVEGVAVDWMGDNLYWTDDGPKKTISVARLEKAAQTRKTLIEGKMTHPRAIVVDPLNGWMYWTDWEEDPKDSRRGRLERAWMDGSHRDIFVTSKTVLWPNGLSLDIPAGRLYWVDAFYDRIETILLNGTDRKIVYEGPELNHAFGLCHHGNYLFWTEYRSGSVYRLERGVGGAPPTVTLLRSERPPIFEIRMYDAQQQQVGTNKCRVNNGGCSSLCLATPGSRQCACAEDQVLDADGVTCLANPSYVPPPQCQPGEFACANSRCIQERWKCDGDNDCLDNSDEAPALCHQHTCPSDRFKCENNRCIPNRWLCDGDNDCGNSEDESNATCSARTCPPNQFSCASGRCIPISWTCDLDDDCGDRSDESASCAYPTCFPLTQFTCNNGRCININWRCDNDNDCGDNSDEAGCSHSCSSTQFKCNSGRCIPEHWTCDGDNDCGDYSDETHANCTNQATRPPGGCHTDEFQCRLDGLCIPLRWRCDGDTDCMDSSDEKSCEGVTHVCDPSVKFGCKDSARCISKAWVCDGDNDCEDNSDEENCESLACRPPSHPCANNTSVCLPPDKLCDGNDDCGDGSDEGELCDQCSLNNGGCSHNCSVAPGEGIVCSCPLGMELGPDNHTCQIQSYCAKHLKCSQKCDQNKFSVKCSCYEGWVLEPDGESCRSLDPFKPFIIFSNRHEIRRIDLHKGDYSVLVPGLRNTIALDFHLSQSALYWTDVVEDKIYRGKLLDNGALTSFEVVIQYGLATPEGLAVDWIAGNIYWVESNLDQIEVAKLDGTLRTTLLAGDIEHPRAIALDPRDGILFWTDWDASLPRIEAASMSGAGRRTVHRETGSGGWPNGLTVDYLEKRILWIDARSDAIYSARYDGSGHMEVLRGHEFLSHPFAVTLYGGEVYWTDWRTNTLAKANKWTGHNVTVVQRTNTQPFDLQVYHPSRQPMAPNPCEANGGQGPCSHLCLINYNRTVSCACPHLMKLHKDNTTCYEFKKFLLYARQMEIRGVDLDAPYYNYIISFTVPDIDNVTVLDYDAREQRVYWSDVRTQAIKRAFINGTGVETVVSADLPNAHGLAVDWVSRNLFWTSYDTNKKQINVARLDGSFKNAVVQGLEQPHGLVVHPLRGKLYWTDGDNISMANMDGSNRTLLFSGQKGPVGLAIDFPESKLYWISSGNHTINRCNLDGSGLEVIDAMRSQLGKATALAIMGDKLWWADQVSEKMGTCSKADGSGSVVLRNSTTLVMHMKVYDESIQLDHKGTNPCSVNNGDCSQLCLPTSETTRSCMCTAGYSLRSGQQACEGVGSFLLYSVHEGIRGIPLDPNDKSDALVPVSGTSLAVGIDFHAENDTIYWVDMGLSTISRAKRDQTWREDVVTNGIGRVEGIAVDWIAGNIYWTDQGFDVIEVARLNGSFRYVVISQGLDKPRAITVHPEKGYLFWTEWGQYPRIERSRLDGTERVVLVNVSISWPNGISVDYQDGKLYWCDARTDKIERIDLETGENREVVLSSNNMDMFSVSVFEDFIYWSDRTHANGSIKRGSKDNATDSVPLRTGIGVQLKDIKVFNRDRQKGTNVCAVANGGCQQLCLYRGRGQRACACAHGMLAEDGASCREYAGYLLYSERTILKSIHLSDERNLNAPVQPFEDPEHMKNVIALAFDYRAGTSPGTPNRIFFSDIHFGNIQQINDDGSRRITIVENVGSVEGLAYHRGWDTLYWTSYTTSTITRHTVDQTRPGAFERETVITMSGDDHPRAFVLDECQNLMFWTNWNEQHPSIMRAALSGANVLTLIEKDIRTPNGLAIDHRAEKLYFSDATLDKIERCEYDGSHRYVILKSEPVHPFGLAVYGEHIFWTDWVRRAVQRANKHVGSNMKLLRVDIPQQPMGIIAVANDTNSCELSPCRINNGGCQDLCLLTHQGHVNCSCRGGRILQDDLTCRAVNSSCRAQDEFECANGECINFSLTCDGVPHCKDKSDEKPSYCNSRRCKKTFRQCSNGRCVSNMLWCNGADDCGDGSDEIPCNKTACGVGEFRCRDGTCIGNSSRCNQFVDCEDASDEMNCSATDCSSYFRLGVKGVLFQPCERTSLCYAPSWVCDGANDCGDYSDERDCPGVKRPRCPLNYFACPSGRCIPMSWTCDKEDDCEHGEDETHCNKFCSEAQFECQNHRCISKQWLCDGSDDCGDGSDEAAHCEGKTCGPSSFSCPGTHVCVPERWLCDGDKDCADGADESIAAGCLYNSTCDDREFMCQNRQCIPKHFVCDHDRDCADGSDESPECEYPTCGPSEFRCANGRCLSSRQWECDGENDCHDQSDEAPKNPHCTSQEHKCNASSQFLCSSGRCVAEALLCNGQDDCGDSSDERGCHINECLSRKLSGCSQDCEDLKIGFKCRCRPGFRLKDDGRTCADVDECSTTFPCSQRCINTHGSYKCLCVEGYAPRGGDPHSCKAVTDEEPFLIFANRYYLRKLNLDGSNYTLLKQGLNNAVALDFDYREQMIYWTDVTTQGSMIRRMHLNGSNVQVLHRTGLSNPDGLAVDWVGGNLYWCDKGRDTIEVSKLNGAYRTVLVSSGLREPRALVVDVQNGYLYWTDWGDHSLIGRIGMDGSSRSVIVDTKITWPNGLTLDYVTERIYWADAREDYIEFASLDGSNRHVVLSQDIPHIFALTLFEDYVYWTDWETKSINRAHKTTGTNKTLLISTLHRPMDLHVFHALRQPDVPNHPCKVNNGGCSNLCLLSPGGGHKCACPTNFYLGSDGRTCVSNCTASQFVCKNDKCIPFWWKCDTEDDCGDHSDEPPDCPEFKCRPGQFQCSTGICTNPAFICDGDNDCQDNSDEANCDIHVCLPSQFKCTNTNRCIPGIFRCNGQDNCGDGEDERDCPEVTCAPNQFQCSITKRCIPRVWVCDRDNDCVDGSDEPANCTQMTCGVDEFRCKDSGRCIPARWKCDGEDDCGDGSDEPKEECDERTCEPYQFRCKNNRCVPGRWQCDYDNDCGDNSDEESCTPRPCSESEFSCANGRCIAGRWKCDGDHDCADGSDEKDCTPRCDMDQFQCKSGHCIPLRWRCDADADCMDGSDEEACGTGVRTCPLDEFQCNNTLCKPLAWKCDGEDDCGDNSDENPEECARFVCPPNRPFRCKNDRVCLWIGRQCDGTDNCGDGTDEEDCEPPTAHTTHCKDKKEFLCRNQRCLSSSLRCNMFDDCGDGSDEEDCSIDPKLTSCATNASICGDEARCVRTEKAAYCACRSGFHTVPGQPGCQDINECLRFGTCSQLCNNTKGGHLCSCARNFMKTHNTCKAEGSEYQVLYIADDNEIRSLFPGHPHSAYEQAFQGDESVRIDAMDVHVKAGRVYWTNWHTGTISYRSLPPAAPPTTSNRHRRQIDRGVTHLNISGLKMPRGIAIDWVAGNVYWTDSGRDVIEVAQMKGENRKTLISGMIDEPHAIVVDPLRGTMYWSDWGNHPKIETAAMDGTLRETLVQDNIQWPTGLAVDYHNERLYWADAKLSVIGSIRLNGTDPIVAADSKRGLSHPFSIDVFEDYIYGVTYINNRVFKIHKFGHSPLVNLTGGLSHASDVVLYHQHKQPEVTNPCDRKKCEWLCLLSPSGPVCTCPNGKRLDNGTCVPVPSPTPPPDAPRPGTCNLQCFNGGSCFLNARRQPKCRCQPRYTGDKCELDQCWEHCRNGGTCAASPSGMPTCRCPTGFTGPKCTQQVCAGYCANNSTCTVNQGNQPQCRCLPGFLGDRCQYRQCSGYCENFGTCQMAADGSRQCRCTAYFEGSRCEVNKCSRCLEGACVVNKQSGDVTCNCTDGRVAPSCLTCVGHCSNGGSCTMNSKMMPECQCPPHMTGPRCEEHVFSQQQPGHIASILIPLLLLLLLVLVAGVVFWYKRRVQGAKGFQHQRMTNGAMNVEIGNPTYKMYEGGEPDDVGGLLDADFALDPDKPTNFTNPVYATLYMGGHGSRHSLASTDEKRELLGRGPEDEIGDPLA

On to “Aβ42-HyLite488: fluorescently labeled Aβ42”, for which the “internalization by APOE3 pericyte-like cells” value in data set [1] is recorded as “internalized fluorescently labeled Aβ42-HyLite488”. With “RAP: LRP1 inhibitor; competes with APOE for LRP1 binding”, the “effect of LRP1 inhibition on basolateral-to-apical Aβ40 transcytosis” value in data set [2] was “reduced but did not completely inhibit Aβ transcytosis”. For the same substance, the “effect of LRP1 inhibition on Aβ42-Hylite488 internalization” value in data set [3] is “internalization was diminished”. On to “rhAPOE2: recombinant human APOE2 (Peprotech, 350 − 12)”, for which the “effect of recombinant APOE isoform on Aβ42 trafficking” value in data set [4] (setting [5]) is on record as “significantly increased the trafficking of Aβ42”. As to “rhAPOE3: recombinant human APOE3 (Peprotech, 350-02)”, in data set [4] (APOE3 iPSC-derived BMEC-like cells on Transwell, Aβ40 dosed basolateral with or without rhAPOE3, apical Aβ40 by ELISA, n = 8 wells (Fig. 2D)), the “effect on basolateral-to-apical Aβ40 transcytosis” value is “facilitated Aβ40 transcytosis”. In addition, the “effect of recombinant APOE isoform on Aβ40 trafficking” value in data set [4] (APOE KO BMEC-like cells on Transwell, 500 nM rhAPOE plus 500 nM Aβ40 basolateral, apical ELISA, vs no APOE control, n = 12 (Fig. 3D)) is given as “significantly increased the trafficking of Aβ40”. With “rhAPOE4: recombinant human APOE4 (Peprotech, 350-04)”, the “effect of recombinant APOE isoform on Aβ42 trafficking” value in data set [4] (setting [5]) is reported as “does not provide any increase in Aβ40 or Aβ42 clearance”.
